# Test results reported in patent US10174293B1, “Recombinant PB1 bacteriophages and uses thereof” (Charles Stark Draper Laboratory, Inc., priority 2018, dated 2019).
# System: drug sensitive strain
# Assay: Antibiotic susceptibility profiling with recombinant PB1 phages, drug sensitive strain
# Assay type: cell-based, Pseudomonas aeruginosa
# From the text: In some embodiments of the method, the differences in the reporter gene expression of the recombinant PB1 bacteriophage observed in the antibiotic treated sub-sample and the untreated control sub-sample is defined as μ.
substance,measurement,setting,value
gentamicin,luciferase activity of antibiotic treated sample,versus 'no drug' sample (FIG. 4B),decline in luciferase activity
same,μ value over time,"μ = difference in reporter expression, treated vs untreated (FIG. 4B)",steady increase in μ value over time
